In PMC6163455 (Biomolecules, 2018):

How the values were obtained:
[1] = system: CHO-K1 cells; experiment: live-cell confocal microscopy of β-lactamase internalization; format: cell-based, Chinese hamster; conditions: 4 µM conjugate with SpyC_BLA or unconjugated SpyC_BLA, 2 h, CCF2-AM 2 µM 1 h, Figure 2a–f
Protocol: (§1) Figure 2 Live-cell confocal microscopy visualizes CPP-mediated β-lactamase internalization. The CPP-mediated uptake of CPP_SpyT/SpyC_BLA conjugates (4 µM) was visualized in CHO-K1 cells (a–f) and T47D cells (g–n). SpyC_BLA was conjugated to CPP_SpyT peptides. […] The degree of uptake is CPP-dependent and visualized by blue fluorescing cells. Bar scale is 50 µm (a–j) or 14.6 µm (k–n).
(§2) Cells were seeded (CHO-K1, 37,500 cells/mL; T47D 37,500 cells/mL) onto 4-well ibiTreat chamber slides (Thermo Fisher Scientific) and incubated for 48 h at 37 °C, 5% CO2. The medium was removed and replaced with medium containing SpyC_BLA/CPP_SpyT conjugated or unconjugated SpyC_BLA proteins and cells were incubated for 2 h at 37 °C, 5% CO2. After incubation, the cells were washed to remove any SpyC_BLA protein that had not internalized, loaded with substrate CCF2-AM (2 µM final concentration in media containing 1% FCS), and incubated for 1 h at room temperature. Live cells were visualized through confocal microscopy. Images were collected using a Nikon C2 Confocal Microscope through a 40× differential interference contrast (DIC) objective after excitation by a 408 nm laser. Bar scales in images represent 50 µm or 14.6 µm (zoom magnification 3.4×).

[2] = system: T47D cells; experiment: as above; format: cell-based, human; conditions: 4 µM conjugate with SpyC_BLA or unconjugated SpyC_BLA, 2 h, CCF2-AM 1 h, Figure 2g–n
Protocol: as §1, §2

[3] = system: CHO-K1 cells; experiment: β-lactamase internalization assay (CCF2-AM, flow cytometry); format: cell-based, Chinese hamster
Protocol: The β-lactamase internalization assay is based on the simple principle that CPP-dependent intracellular delivery of recombinant β-lactamase protein can be detected by cleavage of the CCF2 substrate in the cytosol (Figure 1a). In brief, CPP sequences and the β-lactamase cargo protein can be brought together by conjugation or can be recombinantly expressed as a CPP_β-lactamase (CPP_BLA) fusion (Figure 1a, step i). The CPP_BLA protein fusions or conjugates are incubated on cells, which are then washed to remove excess protein that has not internalized (Figure 1a, step ii). The cells are incubated further (i.e., loaded) with the CCF2-AM cell-permeable dye for 1 h (Figure 1a, step iii). […] This reaction is measured as a shift in fluorescent signal from green to blue. […]
(§3) To validate the assay, we first used a conjugation approach based on the SpyTag (SpyT) peptide/SpyCatcher (SpyC) protein ligation technology. […] Protein conjugates were incubated on CHO-K1 or T47D cells, measuring the fluorescence shift as percentage of blue fluorescent CHO-K1 or T47D cells after 1 h (Figure 1b,c, respectively). […]
The two phylomer CPPs with the strongest β-lactamase internalization signal and the canonical CPP TAT (positive control) were expressed as direct fusions with β-lactamase (CPP_BLA proteins; sequences in Table A2). […]

[4] = system: T47D cells; experiment: as above; format: cell-based, human; conditions: CPP_SpyT/SpyC_BLA conjugates or unconjugated SpyC_BLA, 1 h at 37 °C, CCF2-AM 1 µM, Figure 1c, No CPP control n = 3
Protocol: The β-lactamase internalization assay is based on the simple principle that CPP-dependent intracellular delivery of recombinant β-lactamase protein can be detected by cleavage of the CCF2 substrate in the cytosol (Figure 1a). In brief, CPP sequences and the β-lactamase cargo protein can be brought together by conjugation or can be recombinantly expressed as a CPP_β-lactamase (CPP_BLA) fusion (Figure 1a, step i). The CPP_BLA protein fusions or conjugates are incubated on cells, which are then washed to remove excess protein that has not internalized (Figure 1a, step ii). The cells are incubated further (i.e., loaded) with the CCF2-AM cell-permeable dye for 1 h (Figure 1a, step iii). Once inside the cell, CCF2-AM is converted by endogenous cytoplasmic esterases to CCF2, which is retained in the cytosol. In cells where β-lactamase has internalized through CPP activity, CCF2 is cleaved by β-lactamase (Figure 1a, step iv). This reaction is measured as a shift in fluorescent signal from green to blue. […]
as §3

[5] = system: CHO-K1 cells; experiment: cell fractionation and anti-β-lactamase immunoblotting; format: cell-based, Chinese hamster; conditions: 8 µM, 1.5 h at 37 °C, digitonin cytosol extraction, 4 µg aliquots, anti-β-lactamase antibody, Figure S1
Protocol: Supplementary Information
Supplementary Figures: β-Lactamase Tools for Establishing Cell Internalization and Cytosolic
Delivery of Cell Penetrating Peptides
Figure S1. Verification of cell penetrating peptides (CPP)-mediated β-lactamase internalization by immunoblotting. MW: molecular weight.
Aliquots (4 µg) of cytosolic and membrane soluble CHO-K1 cell fractions from β-lactamase assays were separated by sodium dodecyl sulfate–polyacrylamide gel electrophoresis (SDS-PAGE) through a 4-12% (w/v) polyacrylamide Bis-Tris gel, transferred to polyvinylidene difluoride (PVDF) membrane, and immunoblotted. β-lactamase conjugated (e.g., 1746_SpyT/SpyC_BLA) or fused (e.g., 1746_BLA recombinant) to 1746c27 and 1746 Phylomer cell penetrating peptides (CPPs) was detected in the cytosolic fraction to varying extents, while TAT-conjugated β-lactamase was predominantly detected in the membrane fraction of cell lysates. […]
delivered into the cytosol by the 1746 CPP. Internalization of unconjugated SpyC_BLA protein was not detected, either on its own (SpyC_BLA (no CPP)) or in the presence of 1746c27 peptide (1746c27, SpyC_BLA), illustrating there is no bystander uptake effect. […]
Aliquots of extracted fractions (4 µg) were separated through a 4–12% Bis-Tris gel (Invitrogen, Carlsbad, CA, USA). Protein expression in the fractions was detected using monoclonal anti-β- […]

Row | Substance | uptake of SpyC_BLA visualized by blue fluorescing cells [1] | uptake of SpyC_BLA visualized by blue fluorescing cells [2] | internalization of CPP-conjugated SpyC_BLA (percentage of blue viable cells) ([3]; CPP_SpyT/SpyC_BLA conjugates or unconjugated SpyC_BLA, 0.5–4 µM, 1 h at 37 °C, CCF2-AM 2 µM, Figure 1b, No CPP control n = 7) | internalization of recombinantly expressed CPP_β-lactamase fusion protein (percentage of blue viable cells) ([3]; recombinant CPP_BLA fusion proteins, SpyC_BLA as negative control, Figure 1d) | internalization of CPP-conjugated SpyC_BLA (percentage of blue viable cells) [4] | β-lactamase detected in cytosolic and membrane cell fractions (immunoblot) [5]
1 | GRKKRRQRRRGASAHIVMVDAYKPTKG [TAT_SpyT, reference compound] | enabled CPP-dependent uptake of SpyC_BLA | enabled CPP-dependent uptake of SpyC_BLA |  |  |  | 
2 | KKKKQPPKPKKPKTQEKKKKQPPKPKRGASAHIVMVDAYKPTKG [1746c27_SpyT, phylomer CPP 1746c27 synthesized as SpyTag fusion] | enabled CPP-dependent uptake of SpyC_BLA | enabled CPP-dependent uptake of SpyC_BLA |  |  |  | 
3 | PLKPKKPKTQEKKKKQPPKPKKPKTQEKKKKQPPKPKRGASAHIVMVDAYKPTKG [1746_SpyT, phylomer CPP 1746 synthesized as SpyTag fusion] | enabled CPP-dependent uptake of SpyC_BLA | enabled CPP-dependent uptake of SpyC_BLA |  |  |  | 
4 | PLTQRTLQRGKKPKQRQNWKKARTSSAKTAPKTVVSRTTSQRKGASAHIVMVDAYKPTKG [0169_SpyT, phylomer CPP 0169 synthesized as SpyTag fusion] | enabled CPP-dependent uptake of SpyC_BLA |  |  |  |  | 
5 | RKQKSLQTKLAENPPVPRKKRQSRPRWKQWLQKGASAHIVMVDAYKPTKG [0084_SpyT, phylomer CPP 0084 synthesized as SpyTag fusion] | enabled CPP-dependent uptake of SpyC_BLA |  |  |  |  | 
6 | SpyC_BLA: recombinantly expressed SpyCatcher_β-lactamase protein; unconjugated it is the 'No CPP' negative control | minimal evidence of internalization | minimal evidence of internalization | does not internalize | does not internalize | does not internalize | not detected
